# Patent publication US20230274811A1, “METHODS OF MAKING PROSTATE CANCER TREATMENT DECISIONS” (Progenics Pharmaceuticals, Inc., priority 2020, published 2023)
# Tested on: biochemically recurrent prostate cancer
# Assay: CONDOR: 18F-DCFPyL PET/CT correct localization rate, detection rate and PPV vs composite standard of truth
# Type: in vivo, men
# Conditions: for PPV % (95% CI): patient level
# Source text: 1. Correct Localization Rate (CLR), defined as percentage of subjects with a one-to-one correspondence between localization of at least one lesion identified on ^18F-DCFPyL PET/CT imaging and the composite truth standard, defined as either evaluable histopathology, informative correlative imaging, or PSA response after radiation therapy.
# Men ≥18 years of age with a rising PSA after definitive PCa therapy and negative or equivocal imaging were enrolled. […] The primary endpoint of this study was the correct localization rate (CLR). CLR is defined as the percentage of patients with a one-to-one correspondence between localization of at least one lesion identified by ^18F-DCFPyL PET/CT and a composite standard of truth (SOT). SOT was determined by two central readers and included either histopathology or another standard imaging modality (i.e., fluciclovine-PET/CT, CT/MRI, bone scan) or alternatively, by a post-treatment PSA change for irradiated lesions.
# Methods: Men ≥18 years—with rising PSA after definitive therapy and negative or equivocal standard of care imaging (e.g., CT/MRI, bone scintigraphy) were enrolled. A single 9 mCi (333 MBq)±20% dose of PyL was injected, followed by PET/CT 1-2 hours later. Primary endpoint was correct localization rate (CLR), defined as percentage of pts with a 1:1 correspondence between at least one lesion identified by PyL-PET/CT and the composite standard of truth: pathology, correlative imaging, or PSA response. […] The secondary endpoint, impact of PyL-PET/CT on clinical management of pts was based on the treating physician's documented clinical plans before and after PyL-PET/CT.
# Men with a PSA ≥0.2 ng/mL after surgery or ≥2 ng/mL above the nadir after radiation therapy were eligible for enrollment. The primary endpoint was the correct localization rate (CLR) defined as positive predictive value with an additional requirement of anatomical lesion colocalization between ^18F-DCFPyL-PET/CT and a composite standard of truth (SOT). The SOT consisted of, in descending priority: 1) histopathology, 2) correlative imaging findings determined by two central readers, or 3) post-radiation PSA response. […] The impact of ^18F-DCFPyL-PET/CT as defined by change in management intent, and safety were evaluated as secondary endpoints.
# Patients voided prior to imaging, and PET and non-contrast CT images were acquired from the mid-thigh through the skull vertex. All ^18F-DCFPyL-PET/CT scans were submitted to the central imaging core laboratory for assessment. Patients with positive ^18F-DCFPyL-PET/CT scans based on local interpretation were scheduled for post-^18F-DCFPyL-PET/CT follow-up to verify suspected lesion(s) based on a composite standard of truth (SOT). (FIG. 16)
# Because of the expected absence of an amenable lesion for histologic verification in all patients, a composite SOT was employed based on assessment performed or initiated within 60 days following ^18F-DCFPyL-PET/CT. These reference standards were defined (in descending priority) as (1) evaluable histopathology results from prostatectomy, salvage pelvic lymph node dissection or biopsy; (2) imaging findings using ^18F-fluciclovine or ^11C-choline PET, or focused MRI or CT; or (3) if neither of the above was available or informative, confirmed PSA response up to 9 months post-radiation initiation (with no concomitant ADT) of all PET-positive foci. PSA response was defined as PSA decline by ≥50% from baseline that was confirmed on repeat measurement within 4 weeks, based on central laboratory results.
# A central imaging core laboratory was employed to independently manage image handling, reader training, reader sessions and data collection. […] The readers had no access to any clinical information, including PSA values or other imaging available for a patient. […]
# [1] = SOT Correlative imaging n=100, Reader 3
# [2] = SOT Histopathology n=31, Reader 1
# [3] = SOT Histopathology n=31, Reader 2
# [4] = SOT Histopathology n=31, Reader 3
# [5] = SOT PET-Fluciclovine n=71, Reader 1
# [6] = SOT PET-Fluciclovine n=71, Reader 2
# [7] = SOT PET-Fluciclovine n=71, Reader 3
smiles,measurement,setting,value
"O=C(O)CC[C@H](NC(=O)N[C@@H](CCCCNC(=O)c1ccc([18F])nc1)C(=O)O)C(=O)O [18F-DCFPyL, 2-(3-{1-carboxy-5-[(6-[^18F]fluoro-pyridine-3-carbonyl)-amino]-pentyl}ureido)-pentanedioic acid]",CLR (TP/TP + FP),[1],(86.1%)
same,Negative PyL Scan,[1],(23.0%)
same,PPV (TP/TP + FP),[1],(87.0%)
same,Positive PyL Scan,[1],(77.0%)
same,CLR (TP/TP + FP),[2],(78.6%)
same,Negative PyL Scan,[2],(6.5%)
same,PPV (TP/TP + FP),[2],(93.1%)
same,Positive PyL Scan,[2],(93.5%)
same,CLR (TP/TP + FP),[3],(82.8%)
same,Negative PyL Scan,[3],(3.2%)
same,PPV (TP/TP + FP),[3],(93.3%)
same,Positive PyL Scan,[3],(96.8%)
same,CLR (TP/TP + FP),[4],(80.8%)
same,Negative PyL Scan,[4],(9.7%)
same,PPV (TP/TP + FP),[4],(92.9%)
same,Positive PyL Scan,[4],(90.3%)
same,CLR (TP/TP + FP),"SOT MRI n=23, Reader 1",(80.0%)
same,Negative PyL Scan,"SOT MRI n=23, Reader 1",(30.4%)
same,Positive PyL Scan,"SOT MRI n=23, Reader 1",(69.6%)
same,CLR (TP/TP + FP),"SOT MRI n=23, Reader 2",(86.7%)
same,Negative PyL Scan,"SOT MRI n=23, Reader 2",(30.4%)
same,Positive PyL Scan,"SOT MRI n=23, Reader 2",(69.6%)
same,CLR (TP/TP + FP),"SOT MRI n=23, Reader 3",(86.7%)
same,Negative PyL Scan,"SOT MRI n=23, Reader 3",(30.4%)
same,Positive PyL Scan,"SOT MRI n=23, Reader 3",(69.6%)
same,CLR (TP/TP + FP),[5],(90.9%)
same,Negative PyL Scan,[5],(14.1%)
same,Positive PyL Scan,[5],(85.9%)
same,CLR (TP/TP + FP),[6],(90.0%)
same,Negative PyL Scan,[6],(23.9%)
same,Positive PyL Scan,[6],(76.1%)
same,CLR (TP/TP + FP),[7],(86.8%)
same,Negative PyL Scan,[7],(19.7%)
same,Positive PyL Scan,[7],(80.3%)
same,CLR (TP/TP + FP),"SOT PSA response n=1, Reader 1",(100%)
same,Negative PyL Scan,"SOT PSA response n=1, Reader 1",(0.0%)
same,PPV (TP/TP + FP),"SOT PSA response n=1, Reader 1",(100%)
same,Positive PyL Scan,"SOT PSA response n=1, Reader 1",(100%)
same,CLR (TP/TP + FP),"SOT PSA response n=1, Reader 2",(100%)
same,Negative PyL Scan,"SOT PSA response n=1, Reader 2",(0.0%)
same,PPV (TP/TP + FP),"SOT PSA response n=1, Reader 2",(100%)
same,Positive PyL Scan,"SOT PSA response n=1, Reader 2",(100%)
same,CLR (TP/TP + FP),"SOT PSA response n=1, Reader 3",(100%)
same,Negative PyL Scan,"SOT PSA response n=1, Reader 3",(0.0%)
same,PPV (TP/TP + FP),"SOT PSA response n=1, Reader 3",(100%)
same,Positive PyL Scan,"SOT PSA response n=1, Reader 3",(100%)
same,CLR (TP/TP + FP),"all patients n=208, Reader 1",(85.6%)
same,Negative PyL Scan,"all patients n=208, Reader 1",(34.1%)
same,Positive PyL Scan,"all patients n=208, Reader 1",(65.9%)
same,CLR (TP/TP + FP),"all patients n=208, Reader 2",(87.0%)
same,Negative PyL Scan,"all patients n=208, Reader 2",(40.4%)
same,Positive PyL Scan,"all patients n=208, Reader 2",(59.6%)
same,CLR (TP/TP + FP),"all patients n=208, Reader 3",(84.8%)
same,Negative PyL Scan,"all patients n=208, Reader 3",(40.9%)
same,Positive PyL Scan,"all patients n=208, Reader 3",(59.1%)
same,lesion detection rate,baseline PSA <0.5 ng/mL,36.2%
same,median CLR,baseline PSA <0.5 ng/mL,73.3%
same,lesion detection rate,baseline PSA ≥5 ng/mL,96.7%
same,median CLR,baseline PSA ≥5 ng/mL,96.4%
same,PPV % (95% CI),CONDOR Reader 4,90%
same,PPV % (95% CI),CONDOR Reader 5,91%
same,PPV % (95% CI),CONDOR Reader 6,89%
same,CLR,patients with PSA 0.2 to <2.0 ng/mL,> 73%
same,"PET/CT finding, case study 2","person, PSA 1.27 ng/mL, confirmed by contrast-MRI",lumbar spine metastasis
same,"PET/CT finding, case study 1","person, PSA 1.92 ng/mL, confirmed by pathology",L common iliac and multiple retroperitoneal lymph node lesions
same,"PET/CT finding, case study 3","person, PSA 1.78, confirmed by biopsy",a thoracic spine lesion
